{"source": "ChEMBL document CHEMBL2176876", "about": "“Discovery of potent and selective pyrazolopyrimidine janus kinase 2 inhibitors” (J Med Chem, 2012)", "key": {"[1]": {"assay": "Oral bioavailability in Sprague-Dawley rat at 5 mg/kg", "format": "ADME, organism-based", "settings": "in vivo"}, "[2]": {"assay": "Volume of distribution at steady state in Sprague-Dawley rat at 0.1 to 1 mg/kg, iv", "format": "ADME, organism-based", "design": "dose 0.1-1 mg/kg, route intravenous", "settings": "in vivo, read-out: Vdss"}, "[3]": {"assay": "Permeability from apical to basolateral side in MDCK cells", "format": "ADME, cell-based, Canis lupus familiaris", "settings": "dog, read-out: permeability"}, "[4]": {"assay": "Oral bioavailability in Balb/C mouse at 5 mg/kg", "format": "ADME, organism-based", "settings": "in vivo"}, "[5]": {"assay": "Volume of distribution at steady state in Balb/C mouse at 0.5 mg/kg, iv", "format": "ADME, organism-based", "design": "dose 0.5 mg/kg, route intravenous", "settings": "in vivo, read-out: Vdss"}}}
{"compound": "Cc1cc(NC(=O)c2cnn3ccc(N)nc23)n(-c2cccc(Cl)c2)n1", "values": [{"measurement": "bioavailability", "setting": "[1]", "value": 1, "unit": "%"}, {"measurement": "Vd", "setting": "[2]", "value": 0.185, "unit": "L/kg"}, {"measurement": "Papp A→B", "setting": "[3]", "value": 84, "unit": "nm/s"}, {"measurement": "bioavailability", "setting": "[4]", "value": 8.6, "unit": "%"}, {"measurement": "Vd", "setting": "[5]", "value": 0.27, "unit": "L/kg"}]}
{"compound": "Cc1cc(NC(=O)c2cnn3cccnc23)n(-c2cccc(Cl)c2)n1", "values": [{"measurement": "bioavailability", "setting": "[1]", "value": 44, "unit": "%"}, {"measurement": "Vd", "setting": "[2]", "value": 0.293, "unit": "L/kg"}, {"measurement": "Papp A→B", "setting": "[3]", "value": 105, "unit": "nm/s"}]}
{"compound": "Cn1cc(NC(=O)c2cnn3ccc(N)nc23)c(-c2cccc(Cl)c2)n1", "values": [{"measurement": "bioavailability", "setting": "[1]", "value": 7, "unit": "%"}, {"measurement": "Vd", "setting": "[2]", "value": 0.355, "unit": "L/kg"}]}
{"compound": "CNc1ccn2ncc(C(=O)Nc3cc(C)nn3-c3cccc(Cl)c3)c2n1", "values": [{"measurement": "bioavailability", "setting": "[1]", "value": 30, "unit": "%"}, {"measurement": "Vd", "setting": "[2]", "value": 0.843, "unit": "L/kg"}, {"measurement": "Papp A→B", "setting": "[3]", "value": 151, "unit": "nm/s"}]}
{"compound": "Cn1cc(NC(=O)c2cnn3ccc(N)nc23)c(-c2cc(Cl)ccc2Cl)n1", "values": [{"measurement": "bioavailability", "setting": "[1]", "value": 63, "unit": "%"}, {"measurement": "Vd", "setting": "[2]", "value": 1.08, "unit": "L/kg"}, {"measurement": "Papp A→B", "setting": "[3]", "value": 105, "unit": "nm/s"}]}
{"compound": "Cn1cc(NC(=O)c2cnn3cccnc23)c(-c2cccc(Cl)c2)n1", "values": [{"measurement": "bioavailability", "setting": "[1]", "value": 124, "unit": "%"}, {"measurement": "Vd", "setting": "[2]", "value": 0.349, "unit": "L/kg"}]}
